Assay results published in article PMC9784833, “Mangosteen Metabolites as Promising Alpha-Amylase Inhibitor Candidates: In Silico and In Vitro Evaluations” (Metabolites, 2022).

Target: T1, alpha-amylase (Homo sapiens, UniProt P04746)
T1 sequence (P04746 16-511): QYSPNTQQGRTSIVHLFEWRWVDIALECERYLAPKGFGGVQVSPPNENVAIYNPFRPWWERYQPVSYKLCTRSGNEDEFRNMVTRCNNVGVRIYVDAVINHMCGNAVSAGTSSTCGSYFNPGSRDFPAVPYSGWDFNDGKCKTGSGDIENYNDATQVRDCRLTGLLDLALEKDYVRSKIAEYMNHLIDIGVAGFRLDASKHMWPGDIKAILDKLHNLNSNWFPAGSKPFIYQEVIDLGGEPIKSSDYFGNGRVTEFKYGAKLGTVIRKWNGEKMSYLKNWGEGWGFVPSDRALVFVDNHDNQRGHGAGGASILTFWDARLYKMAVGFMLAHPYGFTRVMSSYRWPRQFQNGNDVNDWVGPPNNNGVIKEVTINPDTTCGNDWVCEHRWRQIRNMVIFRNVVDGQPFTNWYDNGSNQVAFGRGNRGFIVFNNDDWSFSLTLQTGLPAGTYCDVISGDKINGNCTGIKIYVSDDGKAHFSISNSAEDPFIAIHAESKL
Assay: In vitro alpha-amylase inhibition assay (EnzChek Ultra-Amylase-Assay Kit)

IC50 [µM] | SMILES
20.4 | CC(C)=CCc1c(O)cc2oc3c(CC=C(C)C)c(O)c4c(c3c(=O)c2c1O)C=CC(C)(C)O4 [Compound 23, Tovophyllin A]
11.9 | CC(C)=CCc1c(O)c(O)c(/C=C\C(C)(C)O)c2c(=O)c3c(O)c(/C=C\C(C)(C)O)c(O)cc3oc12 [Compound 29, Mangostanaxanthone V]
15.8 | O=C(c1cccc(O)c1)c1c(O)cc(O)cc1O[C@@H]1O[C@H](CO)[C@@H](O)[C@H](O)[C@H]1O [Compound 3, 2,4,3’-Trihydroxy benzophenone-6-O-β-D-glucopyranoside]
28.3 | COc1c(O)cc2oc3c(CC=C(C)CCC=C(C)C)c(O)cc(O)c3c(=O)c2c1CC=C(C)CCC=C(C)C [Compound 10, Mangostanaxanthone I]
21.2 | CC(C)=CCc1c(O)c(CC=C(C)C)c2oc3c(O)ccc(O)c3c(=O)c2c1O [Compound 17, Gartanin]
11.1 | CC(C)=CCc1c(O)cc2oc3c(O)c(O)c(O)c(CC=C(C)C)c3c(=O)c2c1O [Compound 40, Garcixanthone D]
12.8 | COc1ccc(C2Oc3c(c(O)cc(O)c3C3OC(CO)C(O)C(O)C3O)C(=O)C2O)cc1 [Compound 9, 2R,3R-5,7-Dihydroxy-8-C-β-D-glucopyranosyl-4-methoxy-2,3-dihydroflavon-3-ol]
17.1 | CC(C)=CCc1c(O)c(C(=O)CC(C)(C)O)c2oc3c(O)ccc(O)c3c(=O)c2c1O [Compound 39, Garcixanthone C]
44.1 | COc1c(O)cc2oc3cc(O)c(CC=C(C)C)c(O)c3c(=O)c2c1CC=C(C)C [Compound 13, α-Mangostin]
10.4 | O=C(c1ccc(O)c(O)c1)c1c(O)cc(O)cc1O[C@@H]1O[C@H](CO)[C@@H](O)[C@H](O)[C@H]1O [Compound 4, Rhodanthenone]
8.3 | O=C1c2c(O)cc(O)c([C@@H]3O[C@H](CO)[C@@H](O)[C@H](O)[C@H]3O)c2O[C@H](c2ccc(O)cc2)[C@H]1O [Compound 5, Aromadendrin-8-C-glucoside]
19.5 | CC(C)=CCc1c(O)cc2oc3cc(O)c(O)c(/C=C\C(C)(C)O)c3c(=O)c2c1O [Compound 31, Mangostanaxanthone VII]
40.6 | COc1cc2oc3cc(O)c(OC)c(CC=C(C)C)c3c(=O)c2c(O)c1/C=C\C(C)(C)O [Compound 35, Mangostanaxanthone VIII]
8.9 | Oc1cc(O)c2c(c1)O[C@H](c1ccc(O)c(O)c1)[C@H](O)C2 [Compound 6, Epicatechin]
7.1 | O=C(c1cc(O)c(O)cc1O)c1c(O)cc(O)cc1OC1OC(CO)C(O)C(O)C1O [Compound 8, 6-O-β-D-Glucopyranosyl-2,4,6,3′,4′,6′-hexahydroxybenzophenone]
46.5 | COc1c(O)cc2oc3cc(O)c(/C=C\C(C)(C)O)c(O)c3c(=O)c2c1CC=C(C)C [Compound 28, Mangostanaxanthone IV]
18.8 | CC(C)=CCc1c(O)cc2oc3c(CC=C(C)C)c(O)c(O)c(CC=C(C)C)c3c(=O)c2c1O [Compound 15, Garcinone E]
21.9 | CC(C)=CCc1c(O)cc2oc3c(/C=C\C(C)(C)O)c(O)c(O)c(CC=C(C)C)c3c(=O)c2c1O [Compound 30, Mangostanaxanthone VI]
